The NIST ThermoML archive (doi:10.1021/je5009334)

Assay: xn = mol fraction of the nth substance listed
Details: 101 kPa, Liquid; for speed of sound: Sing-around technique in a fixed-path interferometer; for mass density: Vibrating tube method

OCCc1ccccc1 [2-phenylethanol] + CCC(O)CO
Details	mass density [kg/m3]	speed of sound [m/s]
298.15 K, x1 = 0.1	1000.43	1461.6
298.15 K, x1 = 0.2	1002.46	1471.1
298.15 K, x1 = 0.3	1004.33	1479.4
298.15 K, x1 = 0.4	1006.16	1487.8
298.15 K, x1 = 0.5	1007.9	1495.7
298.15 K, x1 = 0.6	1009.62	1502.9
298.15 K, x1 = 0.7	1011.27	1509.7
298.15 K, x1 = 0.8	1012.87	1515.6
298.15 K, x1 = 0.9	1014.52	1521.3
298.15 K, x1 = 1	1016.14	1526.1
303.15 K, x1 = 0.1	996.641	1446.7
303.15 K, x1 = 0.2	998.651	1456.2
303.15 K, x1 = 0.3	1000.5	1464.1
303.15 K, x1 = 0.4	1002.32	1472.3
303.15 K, x1 = 0.5	1004.07	1480
303.15 K, x1 = 0.6	1005.79	1487.1
303.15 K, x1 = 0.7	1007.45	1494.1
303.15 K, x1 = 0.8	1009.06	1499.7
303.15 K, x1 = 0.9	1010.73	1505.3
303.15 K, x1 = 1	1012.39	1510.5
308.15 K, x1 = 0.1	992.825	1431.8
308.15 K, x1 = 0.2	994.816	1441.2
308.15 K, x1 = 0.3	996.652	1448.9
308.15 K, x1 = 0.4	998.462	1456.9
308.15 K, x1 = 0.5	1000.2	1464.5
308.15 K, x1 = 0.6	1001.93	1471.4
308.15 K, x1 = 0.7	1003.61	1478.4
308.15 K, x1 = 0.8	1005.25	1483.8
308.15 K, x1 = 0.9	1006.92	1489.5
308.15 K, x1 = 1	1008.61	1494.7
313.15 K, x1 = 0.1	988.976	1417.1
313.15 K, x1 = 0.2	990.951	1426.2
313.15 K, x1 = 0.3	992.775	1433.8
313.15 K, x1 = 0.4	994.579	1441.5
313.15 K, x1 = 0.5	996.32	1449
313.15 K, x1 = 0.6	998.053	1455.8
313.15 K, x1 = 0.7	999.73	1462.3
313.15 K, x1 = 0.8	1001.39	1468.1
313.15 K, x1 = 0.9	1003.09	1473.8
313.15 K, x1 = 1	1004.75	1479.2
318.15 K, x1 = 0.1	985.093	1402.3
318.15 K, x1 = 0.2	987.058	1411.3
318.15 K, x1 = 0.3	988.872	1418.7
318.15 K, x1 = 0.4	990.674	1426.3
318.15 K, x1 = 0.5	992.412	1433.5
318.15 K, x1 = 0.6	994.121	1440.5
318.15 K, x1 = 0.7	995.794	1446.4
318.15 K, x1 = 0.8	997.515	1452.4
318.15 K, x1 = 0.9	999.245	1458.1
318.15 K, x1 = 1	1000.93	1463.2
323.15 K, x1 = 0.1	981.261	1388.2
323.15 K, x1 = 0.2	983.126	1396
323.15 K, x1 = 0.3	984.949	1403.8
323.15 K, x1 = 0.4	986.752	1411.3
323.15 K, x1 = 0.5	988.495	1418.6
323.15 K, x1 = 0.6	990.215	1425.2
323.15 K, x1 = 0.7	991.945	1431.3
323.15 K, x1 = 0.8	993.644	1437.1
323.15 K, x1 = 0.9	995.386	1442.8
323.15 K, x1 = 1	997.075	1447.7
